Assay results reported in the supplement of paper PMC10307832.

What was measured:
Experiment in all cases: relative viability (nuclei count vs DMSO), 5 days (fraction); higher = more cells survive
[1] = compound: CN1C=C(C2=CC=CC=C21)/C=C\3/C4=C(C=CC=N4)NC3=O + COc1cccc2cc(-c3nc([C@H]4CC[C@H](C(=O)O)CC4)n4ncnc(N)c34)[nH]c12 [OSI-027] (partner 0.5 µM)
How it was run: (§1)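 Relative viability was taken as the ratio of nuclei in treated wells to nuclei in vehicle wells. Lung cancer cell lines in 1536-well plates received compounds by pin tool one day after seeding, either one drug alone or a fixed anchor-drug dose plus five library-drug doses (not always all listed) in √10 steps. Nuclei were counted on 4× images after 5 days of treatment, and values are medians of duplicate plates.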

[2] = compound: CC(=O)Nc1cccc(-n2c(=O)n(C3CC3)c(=O)c3c(Nc4ccc(I)cc4F)n(C)c(=O)c(C)c32)c1 [Trametinib] + CCNC(=O)c1noc(-c2cc(C(C)C)c(O)cc2O)c1-c1ccc(CN2CCOCC2)cc1 [Luminespib] (partner 0.01 µM)
How it was run: as §1

[3] = compound: CN1C=C(C2=CC=CC=C21)/C=C\3/C4=C(C=CC=N4)NC3=O + Nc1ncn([C@H]2C[C@H](O)[C@@H](CO)O2)c(=O)n1 [Decitabine] (partner 2 µM)
How it was run: as §1

[4] = compound: CN1C=C(C2=CC=CC=C21)/C=C\3/C4=C(C=CC=N4)NC3=O + Cc1cc(Nc2cc(N3CCN(C)CC3)nc(Sc3ccc(NC(=O)C4CC4)cc3)n2)n[nH]1 [Tozasertib] (partner 0.1 µM)
How it was run: as §1

UMC-11
relative viability ([1]; first compound 0.02 µM): 0.513 | relative viability ([1]; first compound 0.06325 µM): 0.49 | relative viability ([1]; first compound 0.2 µM): 0.461 | relative viability ([1]; first compound 0.6325 µM): 0.536 | relative viability ([1]; first compound 2 µM): 0.494 | relative viability ([2]; first compound 0.0025 µM): 1.05 | relative viability ([2]; first compound 0.007906 µM): 1.08 | relative viability ([2]; first compound 0.025 µM): 0.951 | relative viability ([2]; first compound 0.07906 µM): 1.04 | relative viability ([2]; first compound 0.25 µM): 0.945 | relative viability ([3]; first compound 0.02 µM): 0.604 | relative viability ([3]; first compound 0.06325 µM): 0.631 | relative viability ([3]; first compound 0.2 µM): 0.497 | relative viability ([3]; first compound 0.6325 µM): 0.395 | relative viability ([3]; first compound 2 µM): 0.646 | relative viability ([4]; first compound 0.02 µM): 0.206 | relative viability ([4]; first compound 0.06325 µM): 0.198 | relative viability ([4]; first compound 0.2 µM): 0.177 | relative viability ([4]; first compound 0.6325 µM): 0.191 | relative viability ([4]; first compound 2 µM): 0.227
